We go through one compound from patent publication US6767569B1, “Surface decontamination of cooked sausage and processed meat and poultry products” (priority 1999, dated 2004).

Holding throughout (assay type): cell-based
The subject of assay [1] is E. coli. The method, then:
(§1) Each strain was subcultured on tryptic soy agar (TSA, DIFCO, Detroit, Mich.) slants and stored at 4° C. Strains were individually transferred into 100 mL of sterile 2× BHI (DIFCO, Detroit, Mich.) and incubated at 35° C. for 24 hr. to reach ca. 10^9 colony forming units/mL (CFU/mL). Then, 25 mL of each strain of E. coli was transferred into a sterile bottle (mixture X), and 25 mL of each strain of each strain of Salmonella spp. was transferred into a sterile bottle (mixture Y). Mixtures X and Y were maintained separately throughout the test.
(§2) Serial dilutions were made using Butterfields' Phosphate Buffer (BPB, Sigma, St. Louis, Mo.) in 1 mL aliquots prior to inoculation. BPB was prepared as a stock solution by adding 34 g Of KH2PO4 to 500 mL of distilled water. The pH was adjusted to 7.2, and the solution was brought to a volume of 1 L. The BPB stock was autoclaved for 20 min. at 121° C. and 15 lbs. of pressure. […] For glacial acetic acid (U.S.P.-F.C.C., J. T. Baker, Phillipsburg, N.J.), starting concentrations and serial dilutions were 50%, 25%, 12.5%, 6.25%, 3.12%, 1.56%, 0.78%, 0.39%, and a control (no treatment, buffer and culture). […] For peracetic acid 35.0% (STERIS 20™, STERIS Corporation, Mentor, Ohio), starting concentrations and serial dilutions were 17.5%, 8.75%, 4.38%, 2.19%, 1.09%, 0.55%, 0.30%, 0.14%, 0.07%, 0.03%, and a control. For liquid smoke (Hickory Specialties, Brentwood, Tenn.) starting concentrations and serial dilutions were 50%, 25%, 12.5%, 6.25%, 3.12%, 1.56%, 0.78%, 0.39%, and a control. Dilutions were prepared with deionized water.
(§3) The test tubes were incubated at 35° C. for 24 hrs. and turbidity was evaluated using McFarland equivalence standards, to study the bacteriostatic properties of the diluted solutions. In addition, each dilution was plated to evaluate the bactericidal properties of, the diluted solutions. Using a 1 μL sterile loop, each concentration and control for either microorganism mixture was streaked on plate count agar (PCA, DIFCO, Detroit, Mich.). A selective agar was also used for each mixture, eosine methylene blue agar (EMB, DIFCO, Detroit, Mich.) for E. coli and xylose lysine decarboxylase agar (XLD, DIFCO, Detroit,Mich.) for Salmonella spp. All plates were incubated for 24 hrs. at 35° C. and were inspected for growth or no growth.

Assay [2] deals with Salmonella spp. The following applies: 35 °C, 24 hrs. The method, then: as §1, §2, §3
For assay [3], the system named is E. coli. The note with it: pork skin; 5 seconds spray; 2% lactic acid, 2% acetic acid, 0.1% peracetic acid; after 24 hours. The procedure:
(§4) Samples of pork skin were inoculated separately with either 5 strains of E. coli or 5 strains of Salmonella spp. (mixtures X and Y, see Example 4). Five different treatments were evaluated for effectiveness in reducing bacteria on pork skin. […] EMB agar was used for E. coli and XLD for Salmonella, and a nutrient agar was also used for E. coli and Salmonella for total count.
(§5) The five strains of generic E. coli and five strains of Salmonella spp. were cultured and transferred individually into 100 mL of tryptic soy broth (TSB, DIFCO, Detroit, Mich.) with 1% dextrose (Sigma, St. Louis, Mo.) in duplicate. Dextrose was added to induce acid tolerance in the microbial cell. The cultures were incubated at 35° C. for 24 hrs. to obtain ca. 10^9 colony forming units (CFU)/mL. The cells were harvested by the centrifuging each culture at 10,000 Xg force for 10 min. at 4° C., (Beckman J2-HS centrifuge, Beckman Instruments, Inc., Palo Alto, Calif.). After centrifugation, the supernatant was poured off, and cells remained in pellet form. Each pellet was individually re-suspended with 50 mL of 0.1% peptonewater (DIFCO, Detroit, Mich.). All five strains of E. coli or Salmonella spp. inoculum were transferred to separate HDPE plastic spray bottles (Sprayco™, Detroit, Mich.) to be used in the mist inoculation of pork skin samples.
(§6) For E. coli, PCA and EMB media were used, and for Salmonella, PCA and XLD media were used. Bacto Plate Count Agar (PCA) was used in this study as a standard methods medium for the enumeration of bacteria before and after treatments. Spiral (sl), or spread (sd) plate technique were used for viable cell counts. Duplicate plates were performed for each treatment.
(§7) Fresh pork skins taken from the loin region were cut to rectangles of 19.35 cm^2. A hole was bored into the top of each sample so that each sample could be suspended from an individual hook in the spray cabinet. Samples were laid out onto trays wrapped in butcher paper. Each tray was individually spray inoculated with E. coli or Salmonella spp. in a Plexiglas spray chamber to ca. 8.4 mL of inoculum. After the inoculation, each tray was placed under a laminar flow hood for 1 hr. to allow the surface to dry and for the attachment of the bacteria to the pork skin.
(§8) The peracetic acid (PAA) used in this study was a 35.0% PAA buffered, liquid solution prepared from a STERIS 20™ two compartment cup (a dry powder containing anticorrosive additives, buffers, sequestrants, and surfactants). The peracetic acid determined before each use of the treatment using a calibration curve.
(§9) Five inoculated samples were individually placed on stainless steel hooks in. a spray cabinet at ambient temperature.
(§10) The samples were exposed to a continuous spray of the selected treatment for 5 seconds at a spray pressure of 16-18 psi.
(§11) The treated samples were placed into individual stomacher bags containing 30 mL of 0.1% peptone water (DIFCO, Detroit, Mich.) and stomached for 2 min. Serial dilutions of 0, 10^−2, and 10^−4 were spiral plated (WASP spiral plater, Bioscience International, Rockville, Md.) on PCA (DIFCO, Detroit, Mich.) and EMB (DIFCO, Detroit, Mich.) for E. coli and on plate count agar (PCA, DIFCO, Detroit, Mich.) and xylose lysine decarboxylase agar (XLD, DIFCO, Detroit, Mich.) for Salmonella spp. Samples were also spread plated on PCA and EMB agar for E. coli or PCA and XLD agar for Salmonella spp, using […] for a total of 1 mL on 4 plates. This was to ensure a countable plate. Plates were inverted and incubated at 35° C. for 24 hrs. (48 hrs. for Salmonella spp.).

The subject of assay [4] is Salmonella spp. The following applies: pork skin; 5 seconds spray; 2% lactic acid, 2% acetic acid, 0.1% peracetic acid; after 48 hours. The method, then:
as §4, §5, §6, §7, §8, §9, §10, §11

For `CC(=O)O` [Acetic Acid, acetic acid, reference compound], the “MIC (%)” value in the assay on E. coli [1] is recorded as 3.12%. Besides, the “MIC (%)” value against Salmonella spp. [2] is 0.78%. For the same compound, in the assay with E. coli [3], the “Total Count (E. coli) on EMB” value is on record as 4.55 Log CFU/cm^2 and the “Total Count (E. coli) on PCA” value is listed as 4.68 Log CFU/cm^2. In the assay on Salmonella spp. [4], the “Total Count (Salmonella) on PCA” value was found to be 5.37 Log CFU/cm^2 and the “Total Count (Salmonella) on XLD” value was determined as 4.27 Log CFU/cm^2.
